Measurements published in ChEMBL document CHEMBL1201862, “PubChem BioAssay data set” (2004).
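Grown in 96-well plates, cells were treated for 48 hours with each compound at five concentrations. Insufficient inhibition: endpoint recorded as highest concentration tested. Here, GI50 denotes the concentration required for 50% inhibition of growth.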 Activity calls are given as the source filed them. Rule as the data show it: active = GI50 up to about 1.1 µM and inactive = higher.

Experiments:
Assay in all cases: NCI anticancer screen, dose series, 48 h
MDA-N = system: MDA-N
BT-549 = system: BT-549
DLD-1 = system: DLD-1
M19-MEL = system: M19-MEL
LXFL 529 = system: LXFL 529
DMS-273 = system: DMS-273
XF498 = system: XF498

Row | SMILES | GI50 (MDA-N) | GI50 (BT-549) | also measured
1 | CC(C)N(Cc1ccccc1)S(=O)(=O)c1nc(C(C)(C)C)n[nH]1 | > 100 µM (inactive) | > 100 µM (inactive) | 
2 | Nc1nc(-c2cccc([N+](=O)[O-])c2)cc(-c2cc(-c3cccc([N+](=O)[O-])c3)nc(N)n2)n1 | > 100 µM (inactive) | > 100 µM (inactive) | 
3 | Cc1ccc(S(=O)ON2CCC(C(=O)O)(c3ccccc3)CC2)cc1 (stereo unspecified) | > 100 µM (inactive) | > 100 µM (inactive) | 
4 | Cc1c2ccccc2c(CSC(=N)N)c2ccccc12 | 0.175 µM (active) | 0.902 µM (active) | 
5 | NCCC(=O)NC(Cc1c[nH]cn1)C(=O)O (stereo unspecified) | > 100 µM (inactive) |  | 
6 | NC(Cc1ccccc1)C(=O)N[C@H]1c2ccsc2/C(=N/O)[C@H]1O (stereo partly specified) | > 100 µM (inactive) | > 100 µM (inactive) | 
7 | O=C(OCC(OC(=O)c1ccccc1)C(OC(=O)c1ccccc1)C(OC(=O)c1ccccc1)c1cnn(-c2ccccc2)n1)c1ccccc1 (stereo unspecified) | > 100 µM (inactive) | > 100 µM (inactive) | 
8 | CC1CC[C@@]2(OC1)OC1C[C@H]3[C@@H]4CC=C5CC(OC6OC(CO)C(OC7OC(CO)C(O)C(OC8OCC(O)C(O)C8O)C7OC7OC(CO)C(OC8OC(C)C(OC9OC(C)C(O)C(O)C9O)C(O)C8O)C(O)C7O)C(O)C6O)CCC5(C)[C@H]4CCC3(C)C1[C@@H]2C (stereo partly specified) | 9.02 µM (inactive) | 9.2 µM (inactive) | 
9 | COCCNC1CCC2(SCCS2)c2[nH]c3ccccc3c21 (stereo unspecified) | 22.9 µM (inactive) | 20.6 µM (inactive) | 
10 | O=C1CCCCCCCCCCC1CN1CCCCC1 (stereo unspecified) |  |  | GI50 (DLD-1): 54.8 µM (inactive); GI50 (M19-MEL): > 100 µM (inactive); GI50 (LXFL 529): > 100 µM (inactive); GI50 (DMS-273): > 100 µM (inactive); GI50 (XF498): 89.5 µM (inactive)
11 | CC(=O)c1ccc2c3c1[C@@H]1O[C@@H]1c1cccc(c1-3)[C@@H]1O[C@H]21 | 13.5 µM (inactive) | 15.1 µM (inactive) | 
12 | C=CC1(c2ccc(Br)cc2)OCCCO1 | > 100 µM (inactive) |  | 
13 | COC(=O)C1CC(C=[N+](C)C)=C(SC)N1 (stereo unspecified) | > 100 µM (inactive) | > 100 µM (inactive) | 
14 | C=C(C)[C@@H]1CC[C@@H](C)[C@](O)([C@@H]2C[C@@H]([C@H](COC(=O)c3ccccc3)OC(=O)c3ccccc3)OC2=O)C1 | > 100 µM (inactive) | > 100 µM (inactive) | 
15 | Oc1ccc(/C=C/c2cccc(/C=C/c3ccc(O)c(O)c3)n2)cc1O | 7.53 µM (inactive) | 10.9 µM (inactive) | 
16 | CC(=O)Oc1cc(Cl)c(OC(C)=O)c2c(OC(C)=O)c(C)c(O[Si](C)(C)C(C)(C)C)cc12 |  |  | GI50 (DLD-1): 1.85 µM (inactive); GI50 (DMS-273): 5.47 µM (inactive); GI50 (XF498): 17.5 µM (inactive)
17 | Nc1nc(-c2ccccc2)nc2oc(-c3cccs3)nc12 | > 10 µM (inactive) | > 100 µM (inactive) | 
18 | CCCCNC(=O)Cn1c2ccc(Br)cc2c2nc3ccccc3nc21 | > 100 µM (inactive) |  | 
19 | COc1ccc(-n2c(N)c(C#N)c(C#N)c2-c2ccccc2)cc1 |  | 19.1 µM (inactive) | 
20 | Cc1ccc(S(=O)(=O)NNC(C[N+](=O)[O-])c2ccccc2)cc1 (stereo unspecified) |  | 15.6 µM (inactive) | 
21 | S=c1sc2c(s1)SCCCCSCCCCSc1sc(=S)sc1SCCCCSCCCCS2 | > 100 µM (inactive) | > 100 µM (inactive) | 
22 | ClC1(Cl)C2CCOC21n1cnc2ccccc21 (stereo unspecified) | > 100 µM (inactive) | > 100 µM (inactive) | 
23 | S=c1sscc1N1CCSc2ssc(=S)c21 | > 100 µM (inactive) | 37 µM (inactive) | 
24 | CC(=O)Oc1c(-c2ccccc2)oc2ccccc12 |  | 2.65 µM (inactive) | 
25 | Cc1ccc(S(=O)(=O)NCCCSCCSCCCN)cc1 | > 100 µM (inactive) |  | 
26 | CCCCN(C)C(=O)C1=C(C)NC(C)=C(C(=O)N(C)CCCC)C1 | > 100 µM (inactive) | > 100 µM (inactive) | 
27 | O=C1C=CC(=O)c2c1ccc1c3ccccc3n(CCCCCn3c4ccccc4c4ccc5c(c43)C(=O)C=CC5=O)c21 | 20.3 µM (inactive) | 32.4 µM (inactive) | 

Row | SMILES | GI50 (MDA-N) | GI50 (BT-549) | also measured
28 | CCOC(=O)Cc1nc2cc(F)c(F)cc2[nH]c1=O | > 100 µM (inactive) | > 100 µM (inactive) | 
29 | CC(C)CC1C(=O)OC(C)(C)OC1=O | > 100 µM (inactive) | > 100 µM (inactive) | 
30 | Nc1c(-c2nc3ccccc3o2)sc(=S)n1-c1ccc(Cl)cc1 | 21.4 µM (inactive) | 31 µM (inactive) | 
31 | COc1ccc(Cc2nc3cc([N+](=O)[O-])ccc3n2C[C@@H]2CCCN3CCCCC23)cc1 (stereo partly specified) | 17.7 µM (inactive) | 19.7 µM (inactive) | 
32 | COC(=O)C(/C(=N\O)C(=O)Nc1cccc(Cl)c1C)c1cnc2ccccc2n1 (stereo unspecified) | > 100 µM (inactive) | > 100 µM (inactive) | 
33 | O=c1[nH]c(=O)n(C2OC(CO)C(O)C2O)cc1OCCCc1ccccc1 (stereo unspecified) | > 100 µM (inactive) |  | 
34 | Cc1ccsc1/C=N/NC1=NCCN1 | > 100 µM (inactive) | > 100 µM (inactive) | 
35 | CCCCc1ccc(Nc2cc(=O)n(C)c(=O)[nH]2)cc1 | > 100 µM (inactive) | > 100 µM (inactive) | 
36 | C/C(=N\O)C(CN(C)C)C(c1ccccc1)c1c(O)c2ccccc2oc1=O (stereo unspecified) |  |  | GI50 (DLD-1): > 100 µM (inactive); GI50 (M19-MEL): > 100 µM (inactive); GI50 (LXFL 529): > 100 µM (inactive); GI50 (DMS-273): > 100 µM (inactive); GI50 (XF498): > 100 µM (inactive)
37 | Cc1ccc2nc(CN3CCCCC3)cc(=O)n2c1 |  | > 100 µM (inactive) | 
38 | COC(CNC(=O)C(C)NC(=O)C(C)NC(=O)c1ccccc1)OC (stereo unspecified) | > 100 µM (inactive) | > 100 µM (inactive) | 
39 | CNNC1=NS(=O)(=O)c2cc(C(=O)OC)c(Cl)cc2S1 | > 10 µM (inactive) | > 10 µM (inactive) | 
40 | O=C(CC(C(=O)c1cccs1)c1ccccc1)c1ccccc1O (stereo unspecified) | 4.93 µM (inactive) |  | 
41 | O=C1C(=C(C(F)(F)Cl)C(F)(F)Cl)C2CCC1C2 (stereo unspecified) |  | 1.58 µM (inactive) | 
42 | C=C1C(=O)OC2CC1C(O)C/C(C)=C/CC/C(C)=C/C(O)CC2C (stereo unspecified) | 1.19 µM (inactive) | 2.31 µM (inactive) | 
43 | CCOC(=O)c1c(-c2ccc(Cl)cc2)c(C#N)c(=S)n(C2OC(CO)C(O)C(O)C2O)c1-c1ccccc1 (stereo unspecified) | 23 µM (inactive) | 29.4 µM (inactive) | 
44 | Cc1cccc(C)c1/N=N/c1ccc(O)c(CN(C)C)c1 | 50.8 µM (inactive) | 56.5 µM (inactive) | 
45 | CC(=O)Oc1ccc(-c2nnc(-c3ccc(OC(C)=O)cc3)nn2)cc1 | > 100 µM (inactive) | > 100 µM (inactive) | 
46 | O=P(Oc1ccc(Cl)cc1)(Oc1ccc(Cl)cc1)N1CC1 | > 10 µM (inactive) | > 10 µM (inactive) | 
47 | O=C1CC(c2ccccc2Cl)C2(C(=O)NC(=O)NC2=O)C(c2ccccc2Cl)C1 (stereo unspecified) | 78 µM (inactive) | > 100 µM (inactive) | 
48 | CC12CC(OC(=O)[C@]1(C)O)[C@@H]([C@]1(O)CC[C@H]3[C@@H]4C[C@H]5O[C@]56[C@@H](O)C=CC(=O)[C@]6(C)[C@H]4CC[C@@]31C)C2 (stereo partly specified) | 7.21 µM (inactive) | 4.06 µM (inactive) | 
49 | CC(C)(Oc1ccc(C2C[C@H]2Cl)cc1)C(=O)O (stereo partly specified) | > 100 µM (inactive) | > 100 µM (inactive) | 
50 | COc1cc(C2(O)c3ccccc3C3=NCCN32)cc(OC)c1OC (stereo unspecified) | > 100 µM (inactive) | > 100 µM (inactive) | 
51 | CC1(C)CCCC(C)(C2CCC3(C)C2C(O)CC2C4(C)CCC(O)C(C)(C)C4CCC23C)O1 (stereo unspecified) | > 100 µM (inactive) | > 100 µM (inactive) | 
52 | COc1cccc(OC)c1C(=O)OCc1ccccc1 |  |  | GI50 (DLD-1): > 100 µM (inactive); GI50 (M19-MEL): > 100 µM (inactive); GI50 (LXFL 529): > 100 µM (inactive); GI50 (XF498): > 100 µM (inactive)
53 | COc1ccc(Nc2cc(O)nc(O)n2)cc1 | > 100 µM (inactive) | > 100 µM (inactive) | 
54 | Oc1ccc(/C=C/c2cc(O)cc(O)c2)cc1 [RESVERATROL] | 50.7 µM (inactive) | > 100 µM (inactive) | 
